IC50 and Kd data for six compounds are collected here from ChEMBL document CHEMBL1126506, “Thoromboxane A2/endoperoxide receptor antagonists: 1,3-Dioxane and 1,3-dioxolane analogs” (Bioorg Med Chem Lett, 1993).

By Kd is commonly meant the constant that tells how readily two partners part at equilibrium.

Molecules are shown by their SMILES.

The target of assay [1] is T1, Thromboxane A2 receptor (Homo sapiens, UniProt P21731).
T1 sequence (P21731 whole entry): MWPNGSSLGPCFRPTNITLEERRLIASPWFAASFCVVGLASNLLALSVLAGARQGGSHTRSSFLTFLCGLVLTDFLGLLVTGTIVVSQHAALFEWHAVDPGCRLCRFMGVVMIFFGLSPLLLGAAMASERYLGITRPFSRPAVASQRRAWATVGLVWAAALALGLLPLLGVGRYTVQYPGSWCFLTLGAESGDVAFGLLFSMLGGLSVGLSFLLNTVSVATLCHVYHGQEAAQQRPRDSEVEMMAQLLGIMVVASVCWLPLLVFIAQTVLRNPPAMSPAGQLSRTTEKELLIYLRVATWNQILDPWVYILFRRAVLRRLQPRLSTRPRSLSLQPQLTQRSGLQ
Nature of the assay: In vitro inhibition against TXA2/PGH2 receptor using [3H]-SQ 29,548 as radioligand in human platelet membrane preparation. The class given is cell membranes. As to conditions: read-out: I50.

The target of assay [2] is T1, Thromboxane A2 receptor. The assay is described as follows: In vitro binding affinity was determined for platelet thromboxane receptor in presence of [3H]-SQ 29548.
The next assay is filed under the species Homo sapiens. Nature of the assay: Tested for ability to inhibit arachidonic acid-induced and ADP-induced platelet aggregation of human platelet rich plasma. The format is functional. As to conditions: read-out: I50.

In the case of `O=C(O)CCc1ccccc1CC1C2CCC(O2)C1c1nc(C(=O)NCCc2ccc(Cl)cc2)co1` (stereo not given), the IC50 on Thromboxane A2 receptor [1] was 7 nM.

Regarding `O=C(O)CCc1ccccc1CC1COCOC1c1nc(C(=O)NCCc2ccc(Cl)cc2)co1` (stereo not given), the Kd on Thromboxane A2 receptor [2] came out at 8 nM. In addition, the IC50 on Thromboxane A2 receptor [1] stood at 330 nM.

For `O=C(O)CCc1ccccc1CC1OCOC1c1nc(C(=O)NCCc2ccc(Cl)cc2)co1` (racemic), at Thromboxane A2 receptor [2], the Kd was 31.1 nM. Further, at Thromboxane A2 receptor [1], the IC50 stood at 130 nM.

`O=C(O)CCc1ccccc1CC1OCOC1c1nc(C(=O)NCCc2ccc(Cl)cc2)co1` (trans isomer; (+)): on Thromboxane A2 receptor [2], the dissociation constant Kd is 45 nM. Further, the IC50 at Thromboxane A2 receptor [1] was found to be 3100 nM.

Consider `O=C(O)CCc1ccccc1CC1OCOC1c1nc(C(=O)NCCc2ccc(Cl)cc2)co1` (trans isomer; (-)), for which the Kd at Thromboxane A2 receptor [2] is 8.2 nM. In addition, on Thromboxane A2 receptor [1], the IC50 amounted to 310 nM.

Regarding `CCCCCNC(=O)c1coc(C2C3CCC(O3)C2Cc2ccccc2CCC(=O)O)n1` (stereo not given) [BMS-180291], the IC50 in the assay filed under Homo sapiens worked out at 7 nM.
